Key:
PRMT5/MEP50 = PRMT5/MEP50 (Homo sapiens (Human), UniProt O14744); assay: PRMT5 Biochemical Assay (PRMT5/MEP50 enzyme assay on peptide substrate, 3H-SAM Flashplate)
In short: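 FLAG-PRMT5/His-MEP50 from Sf9 cells, 4 nM, with 40 nM biotinylated H4(1-15) peptide and 75 nM 3H-SAM in 20 mM Bicine pH 7.6, 1% DMSO; compound preincubated 30 min at 25 °C. Stopped with 600 uM cold SAM; 3H-peptide captured on streptavidin Flashplate, counted; % inhibition versus DMSO and 100 uM SAH controls, IC50 by 3- or 4-parameter fit.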

Z-138 cell line = assay: Z-138 Proliferation Assay (Cell-Titer Glo, 5 days); format: cell-based; details: Z-138 cells
Description: [formula] Z-138 Proliferation Assay
Z-138 suspension cells were purchased from ATCC (American Type Culture Collection, Manassas, Va.). RPMI/Glutamax medium, penicillin-streptomycin, heat inactivated fetal bovine serum were purchased from Life Technologies, Grand Island, N.Y., USA. V-bottom polypropylene 384-well plates were purchased from Greiner Bio-One, Monroe, N.C., USA. Cell culture 384-well white opaque plates were purchased from Perkin Elmer, Waltham, Mass., USA. Cell-Titer Glo® was purchased from Promega Corporation, Madison, Wis., USA. SpectraMax M5 plate reader was purchased from Molecular Devices LLC, Sunnyvale, Calif., USA. […] Cell viability was measured by quantitation of ATP present in the cell cultures, adding […] of Cell Titer Glo® reagent to the cell plates. Luminescence was read in the SpectraMax M5 microplate reader. The concentration of compound inhibiting cell viability by 50% was determined using a 4-parametric fit of the normalized dose response curves.

Sequence of PRMT5/MEP50 (O14744 other isoform, or with tags, fused parts or gaps): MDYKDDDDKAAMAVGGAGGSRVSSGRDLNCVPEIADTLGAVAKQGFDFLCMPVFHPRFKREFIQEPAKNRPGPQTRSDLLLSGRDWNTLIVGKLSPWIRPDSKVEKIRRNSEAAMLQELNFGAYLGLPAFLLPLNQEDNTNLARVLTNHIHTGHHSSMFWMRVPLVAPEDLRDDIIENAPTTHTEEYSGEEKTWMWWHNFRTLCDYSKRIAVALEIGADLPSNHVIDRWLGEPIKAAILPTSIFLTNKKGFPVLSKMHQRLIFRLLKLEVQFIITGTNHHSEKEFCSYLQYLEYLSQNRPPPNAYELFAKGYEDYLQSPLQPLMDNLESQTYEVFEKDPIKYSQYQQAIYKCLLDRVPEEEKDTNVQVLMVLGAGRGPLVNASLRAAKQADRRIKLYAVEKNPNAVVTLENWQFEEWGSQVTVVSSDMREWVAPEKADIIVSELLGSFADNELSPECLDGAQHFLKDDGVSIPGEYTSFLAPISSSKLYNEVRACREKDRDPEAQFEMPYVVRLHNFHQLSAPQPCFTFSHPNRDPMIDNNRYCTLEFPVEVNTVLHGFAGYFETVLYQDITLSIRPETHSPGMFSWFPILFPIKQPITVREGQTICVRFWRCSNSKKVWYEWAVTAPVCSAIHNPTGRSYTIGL
Sequence of PRMT5/MEP50 (Q9BQA1 other isoform, or with tags, fused parts or gaps partner): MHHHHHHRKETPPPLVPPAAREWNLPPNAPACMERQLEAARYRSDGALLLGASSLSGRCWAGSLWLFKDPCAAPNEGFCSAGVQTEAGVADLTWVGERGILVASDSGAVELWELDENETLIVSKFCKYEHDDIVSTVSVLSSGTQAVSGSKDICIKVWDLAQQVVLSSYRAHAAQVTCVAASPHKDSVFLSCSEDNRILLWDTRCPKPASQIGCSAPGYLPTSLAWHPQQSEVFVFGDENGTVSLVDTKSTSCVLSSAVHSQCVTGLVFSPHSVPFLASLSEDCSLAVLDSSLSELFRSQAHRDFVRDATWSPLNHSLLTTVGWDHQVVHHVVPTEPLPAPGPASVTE

## OC(COc1cccc(-c2ccc3cn[nH]c3c2)c1)CN1CCc2ccccc2C1 (stereo not shown) [Compound 58, 1-(3-(1H-indazol-6-yl)phenoxy)-3-(3,4-dihydroisoquinolin-2(1H)-yl)propan-2-ol]
PRMT5/MEP50
  IC50: 101 to 1000 nM
Z-138 cell line
  EC50: 10000 to 40000 nM

## N-(3-(3-(3,4-dihydroisoquinolin-2(1H)-yl)-2-hydroxypropoxy)phenyl)pyrimidine-5-carboxamide [Compound 145]
PRMT5/MEP50
  IC50: 101 to 1000 nM
Z-138 cell line
  EC50: > 20000 nM
